According to patent US10543223B2, “Mannose derivatives useful for treating pathologies associated with adherent E. coli” (ENTEROME, priority 2015, dated 2020):
≈ marks a conversion by molar mass, not a printed value.

Legend:
[1] = test system: uropathogenic E. coli strain UTI89; experiment: Hemagglutination inhibition assay, guinea pig erythrocytes, E. coli strain UTI89; assay type: cell-based; conditions: for MIC: Escherichia coli, read-out: minimal inhibitory concentration (MIC) / inhibition titer of haemagglutination; for inhibition of UTI89-induced hemagglutination (in words): FIG. 1
Description: Interaction of E. coli FimH adhesins with the glycocalyx of guinea pig erythrocytes forms a crosslinked network in the wells. Glycoconjugates, added in a 2-fold dilution series, prevent the agglutination reaction. The inhibition titer is defined as the lowest concentration of the glycoconjugate at which hemagglutination is still inhibited. Several strains of E. coli were grown statically overnight in LB at 37° C., washed three times in ice-cold phosphate-buffered saline, and redissolved. A 2-fold dilution of glycoconjugates with a starting concentration of 1 mM was prepared in 25 μL of PBS with 10% of DMSO. Importantly, the pipet tip was changed at every dilution step to avoid carry-over. Next, the bacterial solution (25 μL) was added to the 2-fold dilution series of the compound. Finally, 50 μL of guinea pig red blood cells, washed and diluted in the buffer to 5% of the blood volume, was added to reach 100 μL. The plates were left on ice for one night before read-out.
Inhibition of E. coli Strain UTI89 Isolated from Patient with Urinary Tract Infection.
The anti-adhesive capacity of the inhibitors was evaluated against ten E. coli strains isolated from CD patients, urinary tract infections, and hip prosthesis infections.

AIEC strain LF82 = experiment: Adhesion assay of AIEC LF82 strain on intestinal epithelial cells T84 (pre- and post-incubation); assay type: cell-based, E. coli; conditions: pre-incubation (10 μM) and post-incubation (50 μM) protocols
Description: E. coli strain LF82 isolated from an ileal biopsy of a CD patient was used as the AIEC reference strain. Bacteria were grown overnight at 37° C. in Luria-Bertani (LB) broth, and a bacterial suspension was prepared at a concentration of 1.5×10^8 bacteria/mL in phosphate buffer saline (PBS) for adhesion assays. The human intestinal cell line T84, purchased from American Type Culture Collection (ATCC, CCL-248), was maintained in an atmosphere containing 5% CO2 at 37° C. in the culture medium recommended by ATCC. T84 cells were seeded in 48-well tissue culture plates at a density of 1.5×10^5 cells/well and incubated at 37° C. for 48 h.
AIEC reference strain LF82 was incubated for 1 h with HM or thiazole-bearing mannosides at final concentrations of 0.1, 1, or 10 μM, then bacteria/mannosides solution were incubated with T84 cells in order to have a multiplicity of infection (MOI) of 10 bacteria per cell (1.5×10^6 bacteria/well) for 3 h with. Effects of mannoside treatment were compared with HM. Monolayers were washed three times with PBS and lysed with 1% Triton X-100 (Sigma) in deionized water. Samples were diluted and plated onto LB agar plates to determine the number of colony-forming units (CFU). […]

[2] = Faeces concentrations and recovery after IV and PO administration to rats; assay type: in vivo, Sprague Dawley rats; conditions: Sprague Dawley, rat, faeces, po, 10 mg/kg, PO 10 mg/kg, 0-24 h, mean of 3 rats; read-out: Recovery in faeces, mean (quantity found in faeces out of the administered quantity)
Description: Plasma and faeces concentrations after administration of Compound 1b and for compound 13 of WO 2014/016361 at 1 mg/kg by intravenous route and 10 mg/kg by oral route to Sprague Dawley rats Blank rat faeces are homogenized with 3 volumes of UHQ water until obtention of a paste. Then 100 μL of the homogenate are spiked with the molecules and precipitated with 300 μL of acetonitrile. The concentration ranges tested are: • 0.5 ng/mL to 1000 ng/mL for plasma, • 4 to 2000 ng/g for faeces, corresponding to 1 to 500 ng/mL of faeces homogenate. 3. In-Life Part After administration, the animals are placed in individual metabolic cages in order to collect faeces samples during 24 hours. Faeces samples are collected over the 24 hours of the experiment. They are precisely weighed and 3 volumes of UHQ water are added. The mixture is homogeneized until obtention of a paste. Then 100 μL of the homogenate are taken and extracted with 300 μL of Acetonitrile. Analysis is performed using LC-MS/MS determination according to previous analytical test results.

[3] = target: T1, FimH lectin domain (residues 1-158) from E. coli strain UTI89 (Escherichia coli, UniProt Q1R2J4); experiment: Isothermal titration calorimetry of FimH lectin domain; assay type: binding
T1 construct: FimH lectin domain (residues 1-158) from E. coli strain UTI89; made in house
Description: The recombinantly expressed FimH lectin domain (residues 1-158) from E. coli strain UTI89 was purified as described previously by Wellens et al. The FimH protein solution was put into the measurement cell (1452 μl) of a VP-ITC microcalorimeter (Malvern), at a concentration of 11.83 μM in the ITC working buffer (20 mM Na-Hepes at pH 7.4 and 150 mM NaCl). Compound 3c at 100 μM concentration was titrated into the FimH solution using 38 injections of 7 μl, leading to 38 heat peaks measured in μcal/sec (FIG. 12). The heat peaks were integrated (kCal/mole of injectant) to be presented in an enthalpogram with 38 data points (FIG. 12), used for the fitting to the model of one kind of binding sites (Microcal ITC Origin software) in order to derive the affinity (K) and the stoichiometry (N) of the interaction (FIG. 13). Using the constant absolute temperature (T) of the experiment, the entropic contribution ΔS was calculated (FIG. 13).

[4] = Stability test in 0.1 M HCl (anomerization followed by 1H NMR); assay type: physicochemical; conditions: for isomerization to the β-mannose derivative under acidic conditions: samples at t=0, 1 h, 2 h and 8 h, 1H NMR in D2O
Description: Compound 6 of WO 2014/016361 was dissolved in 0.1 M HCl and sample were freeze dried at t=0, 1 h, 2 h and 8 h (see FIG. 10). […] Indeed, under the acidic conditions, an equimolar α/β mixture at T=0 anomerize to a 1/3 α/β mixture at T=8 h.

cystitis murine model = conditions: Wellens et al, 2008; cited from earlier work
AIEC = conditions: in vivo; cited from earlier work

For `Cc1nc(-c2cnccn2)sc1C(=O)c1cnc(NC[C@H]2O[C@H](CO)[C@@H](O)[C@H](O)[C@@H]2O)s1` [Compound 2d, 5-(4-methyl-2-(pyrazin-2-yl)thiazol-5-ylcarbonyl)-2-(((α-D-mannopyranosyl)methyl)amino)-thiazole], the MIC [1] was 3.12 µM (≈ 1.5 µg/mL) and the “inhibition of UTI89-induced hemagglutination (in words)” value (shortened to “inhibition”) [1] was “potent inhibitors”.
With `CC(=O)c1cnc(NC[C@H]2O[C@H](CO)[C@@H](O)[C@H](O)[C@@H]2O)s1` [Compound 2c] the “potency relative to HM at disrupting E. coli promoted hemagglutination” value ([1]; E. coli UTI89) was 8 fold, the MIC [1] was 0.098 µM (≈ 0.0312 µg/mL) and the “inhibition” value [1] was “potent inhibitors”.
For `CC(=O)c1cnc(SC[C@H]2O[C@H](CO)[C@@H](O)[C@H](O)[C@@H]2O)s1` [Compound 2b, 5-acetyl-2-((α-D-mannopyranos-1-yl)methylthioxy)thiazole], the “potency to inhibit attachment of LF82 to T84 cells compared with heptylmannoside” value (AIEC strain LF82) was “more potent than the reference compound heptylmannoside”.
`Cc1nc(-c2cnccn2)sc1C(=O)c1cnc(N[C@H]2O[C@H](CO)[C@@H](O)[C@H](O)[C@@H]2O)s1` [Compound 13 of WO 2014/016361, reference compound] showed a dose excreted [2] of 52.4%.
In the case of `Cc1nc(NCc2cn(CC3OC(CO)C(O)C(O)C3O)nn2)sc1C(=O)c1cnc(NCC2OC(CO)C(O)C(O)C2O)s1` (centres unmarked) [Compound 3c], the Kd [3] is reported as 54.6 nM, the ΔH ([3]; ITC) is reported as -23.630 ± 0.3755 kcal/mol and the ΔS ([3]; ITC, calculated using T of the experiment) is reported as −46.8 cal/mol/deg. For the same compound, the “n (stoichiometry)” value ([3]; ITC, one kind of binding sites model) was 0.874+/−0.00868 sites.
With `CC(=O)c1cnc(N[C@H]2O[C@H](CO)[C@@H](O)[C@H](O)[C@@H]2O)s1` [6 of WO 2014/016361] the α/β mixture ratio ([4]; T=8 h, equimolar α/β mixture at T=0) was 1/3 and the “isomerization to the β-mannose derivative under acidic conditions” value [4] was “isomerizes to the corresponding β-mannose derivative”.
In the case of `CC(=O)c1cnc(C[C@H]2O[C@H](CO)[C@@H](O)[C@H](O)[C@@H]2O)s1` [Compound 1a, 5-acetyl-2-((α-D-mannopyranos-1-yl)methyl)thiazole], the “isomerization to the β-mannose derivative under acidic conditions” value [4] is reported as “does not isomerize”.
For `CCCCCCCO[C@H]1O[C@H](CO)[C@@H](O)[C@H](O)[C@@H]1O` [HM, heptylmannose], the “inhibition” value [1] is given as “potent inhibitors”, the “concentration required to observe a significant bacterial load reduction” value (cystitis murine model) is given as “millimolar” and the “effect with AIEC in CEABAC 10 Crohn's disease model” value (AIEC) is given as “no effect”.
